Data set [1] deals with HIV-1. As to the kind of experiment: HIV-1 replication inhibition in MT4 cells. The class given is cell-based. To be noted: three independent experiments, average ± standard deviation, read-out: HIV-1 EC50. As to the method: (§1) HIV-1 replication was carried out in MT4 cells as previously reported ([Corona et al., 2016a]) using a molecular clone derived from the pNL4-3 ([Thierry et al., 2015]). A total of 120 ng of p24^gag antigen per 10^6 cells, corresponding to a multiplicity of infection (m.o.i.) of 0.3, was used for infection. […] Flow cytometry analysis was performed on a FACSCalibur flow cytometer (BD Biosciences, San Jose, CA, USA), and the results were analyzed using the […] software.

Data set [2] can be described thus: Viability of infected MT4 cells (cytotoxicity). The class given is cell-based. As to conditions: human, MT4 cells infected with HIV-1; infected MT4 cells viability; three independent experiments, average ± standard deviation. The method, then: as §1
Data set [3] has as its system MT4 cells. As to the kind of experiment: Viability of infected MT4 cells (cytotoxicity). The format is cell-based. To be noted: no toxicity up to the highest concentration tested. The method, then:
as §1

Data set [4] concerns the target T1, HIV-1 IN (LEDGF-independent) (Human immunodeficiency virus type 1 group M subtype B, UniProt P12497).
T1 construct: Preparation of recombinant full-length IN and LEDGF proteins; made in house; host or cells: E. coli BL21(DE3)
As to the kind of experiment: biochemical. As to conditions: strand-transfer activity with omission of LEDGF/p75; read-out: IC50 IN LEDGF-independent integration. As to the method: (§2) Proteins were expressed in E. coli BL21(DE3). Briefly, His-IN was purified by loading the precipitate of cell lysate onto a Ni-Sepharose column and eluting with a […] imidazole gradient (0–500 mM) in a HEPES buffer (50 mM, pH 7.5) containing NaCl (1 M), CHAPS (7.5 mM), and β-mercaptoethanol (2 mM). FLAG-IN was purified by loading the precipitate of cell lysate onto a phenyl-sepharose and ammonium sulfate gradient (0–800 mM) in a HEPES (pH 7.5, 50 mM) buffer containing NaCl (200 mM), CHAPS (7.5 mM), and β-mercaptoethanol (2 mM). Peak fractions were pooled, loaded onto a heparin column, and eluted with an increasing NaCl gradient (200 mM to 1 M) in a HEPES (pH 7.5, 50 mM) buffer containing CHAPS (7.5 mm) and β-mercaptoethanol (2 mM). Fractions containing integrase were pooled and stored in glycerol (10%) at −80°C.
Briefly, IN (50 nM) was preincubated with increasing concentrations of compounds for 1 h at room temperature in a reaction buffer containing HEPES (20 mM, pH 7.5), DTT (1 mM), glycerol (1%), MgCl2 (20 mM), Brij-35 (0.05%), and bovine serum albumin (BSA) (0.1 mg/ml).

For data set [5], the target named is T2, HIV-1 IN-IN subunit exchange (Human immunodeficiency virus type 1 group M subtype B, UniProt P12497).
T2 construct: Preparation of recombinant full-length IN and LEDGF proteins; made in house; host or cells: E. coli BL21(DE3)
Nature of the data set: HTRF-based IN subunit exchange assay. The class given is binding. The method, then: as §2
His and FLAG-tagged INs were mixed in Tris (pH 7.4, 25 mm) buffer containing NaCl (150 mm), MgCl2 (2 mM), Nonidet P-40 (0.1%), and BSA (1 mg/ml). Test compounds were then added to the mixture, and incubation was carried out for 2.5 h at room temperature.

The target in data set [6] is T3, HIV-1 IN-LEDGF binding (Human immunodeficiency virus type 1 group M subtype B, UniProt P12497).
T3 construct: Preparation of recombinant full-length IN and LEDGF proteins; made in house; host or cells: E. coli BL21(DE3)
Nature of the data set: biochemical. The method, then: as §2
Briefly, His-IN was preincubated with different concentrations of a compound in a buffer containing NaCl (150 mm), MgCl2 (2 mM), Nonidet P-40 (0.1%), BSA (1 mg/ml), and Tris (pH 7.4, 25 mm) for 30 min at room temperature. Then, FLAG-LEDGF was added to the reaction mixture, and a mixture of anti-His6-XL665 and anti-FLAG-EuCryptate antibodies was added.

Data set [7] deals with HIV-1 RTs bearing K103N, Y181C, and Y188L (RNase H). As to the kind of experiment: RNase H activity of HIV-1 RTs bearing K103N, Y181C and Y188L substitutions. The class given is biochemical. As to conditions: all cases. As to the method:
K103N, Y181C, and Y188L mutations were introduced into the p6HRT-prot vector using the QuikChange protocol (Agilent Technologies, Santa Clara, CA, USA). Enzymes were expressed and purified as the wt-HIV-1 RT.
HIV RT-associated RNase H activity was measured as described ([Corona et al., 2016b]) in a 100-µl reaction volume containing 50 mM of Tris-HCl buffer, pH 7.8, 6 mM of MgCl2, 1 mM of dithiothreitol (DTT), 80 mM of KCl, 0.25 µM of hybrid RNA/DNA 5′-[…]-Fluorescin-3′ (high-performance liquid chromatography (HPLC), dry, QC: Mass Check) (available from Metabion) 5′-Dabcyl-[…]-3′ (HPLC, dry, QC: Mass Check), increasing concentrations of inhibitors, whose dilution were made in water, and different amounts of enzymes according to a linear range of the dose–response curve. The reaction mixture was incubated for 1 h at 37°C and stopped by the addition of EDTA, and products were measured with a multilabel counter plate reader Victor 3 equipped with filters for 490/528 nm.

[8] abbreviates: Human immunodeficiency virus 1, MT4, viral replication in MT4 cells.

This note sets out measurements from PMC10328743, “5-Nitro-3-(2-(4-phenylthiazol-2-yl)hydrazineylidene)indolin-2-one derivatives inhibit HIV-1 replication by a multitarget mechanism of action” (Frontiers in Cellular and Infection Microbiology, 2023).

Like-named read-outs stand apart in the source and are kept apart here.

The EC50 is the concentration that produces a half-maximal response. For orientation: CC50 means the concentration giving 50% cytotoxicity. Low values mean greater toxicity to the cells, high ones lower toxicity to the cells.

Turning to `O=C1Nc2ccc(Cl)cc2/C1=N/Nc1nc(-c2ccc(Cl)c(Cl)c2)cs1` [9b], the figures for the 50% effective concentration (EC50) in data set [1] (setting [8]) and in data set [1] (viral replication in MT4 cells) were under 20 µM and 13.2 ± 3.7 µM, respectively. The same compound yielded a half-maximal cytotoxic concentration (CC50) in data set [2] of over 100 µM. Also, the “toxicity against MT4 cells” value in data set [3] is over 100 µM. Moreover, the IC50 in data set [4], in data set [5] and in data set [6] was over 100 µM each time. In data set [7], the “increase in IC50 values vs wt RT, RNase H function” value was “less than threefold”.
Turning to `Cc1ccc(-c2csc(N/N=C3\C(=O)Nc4ccc([N+](=O)[O-])cc43)n2)cc1` [10a], the concentration giving a half-maximal response (EC50) is under 20 µM in data set [1] (setting [8]) and 15.8 ± 1.8 µM in data set [1] (viral replication in MT4 cells). The CC50 in data set [2] was over 100 µM. Besides, the “toxicity against MT4 cells” value in data set [3] was over 100 µM. Further, the IC50 in data set [4] is 35.5 ± 1.5 µM; in data set [5] it was 11.5 ± 1.5 µM; in data set [6] it was over 100 µM. The “IC50 IN/LEDGF binding” value in data set [6] is listed as “without interfering with the binding of LEDGF”. Besides, in data set [7], the “increase in IC50 values vs wt RT, RNase H function” value is “less than threefold”.
